In ChEMBL document CHEMBL5584203, “Discovery of sinomenine/8-Bis(benzylthio)octanoic acid hybrids as potential anti-leukemia drug candidate via mitochondrial pathway” (Bioorg Med Chem Lett, 2024):

Tests used:
MCF7 = experiment: Antiproliferative activity against human MCF7 cells by CCK8 assay; type: functional, cell-based
K562 [1] = experiment: Antiproliferative activity against human K562 cells by CCK8 assay; type: functional, cell-based
MDA-MB-231 = experiment: Antiproliferative activity against human MDA-MB-231 cells by CCK8 assay; type: functional, cell-based
[2] = Cytotoxicity against human PBMCs by CCK8 assay; type: toxicity, cell-based, PBMC
PANC-1 = experiment: Antiproliferative activity against human PANC-1 cells by CCK8 assay; type: functional, cell-based
HepG2 = experiment: Antiproliferative activity against human HepG2 cells by CCK8 assay; type: functional, cell-based
A549 = experiment: Antiproliferative activity against human A549 cells by CCK8 assay; type: functional, cell-based
K562 [3] = experiment: Induction of cell cycle arrest in human K562 cells assessed as G2 phase cells at 4.90 uM by propidium iodide staining based flow cytometry analysis (reference value: 12.80%); type: functional; conditions: dose 4.9 µM
K562 [4] = experiment: Induction of apoptosis in human K562 cells assessed as cell membrane rupture incubated for 48 hrs by Hoechst 33,258 staining based fluorescence microscopy analysis; type: functional; conditions: dose 1.23-4.9 µM
K562 [5] = experiment: Induction of cell cycle arrest in human K562 cells assessed as S phase cells at 1.23 uM by propidium iodide staining based flow cytometry analysis (reference value: 44.03%); type: functional
K562 [6] = experiment: Induction of apoptosis in human K562 cells assessed as chromatin condensation incubated for 48 hrs by Hoechst 33,258 staining based fluorescence microscopy analysis; type: functional, cell-based; conditions: dose 1.23-4.9 µM
K562 [7] = experiment: Induction of cell cycle arrest in human K562 cells assessed as G2 phase cells at 1.23 uM by propidium iodide staining based flow cytometry analysis (reference value: 12.80%); type: functional
K562 [8] = experiment: Induction of apoptosis in human K562 cells assessed as late apoptotic cells at 1.23 uM by Annexin V-FITC and PI staining based flow cytometry analysis (reference value: 3.04%); type: functional
K562 [9] = experiment: Induction of apoptosis in human K562 cells assessed as late apoptotic cells at 2.45 uM by Annexin V-FITC and PI staining based flow cytometry analysis (reference value: 3.04%); type: functional
K562 [10] = experiment: Induction of cell cycle arrest in human K562 cells assessed as G1 phase cells at 4.90 uM by propidium iodide staining based flow cytometry analysis (reference value: 43.16%); type: functional; conditions: dose 4.9 µM
K562 [11] = experiment: Induction of apoptosis in human K562 cells assessed as early apoptotic cells at 1.23 uM by Annexin V-FITC and PI staining based flow cytometry analysis (reference value: 3.31%); type: functional
K562 [12] = experiment: Induction of cell cycle arrest in human K562 cells assessed as S phase cells at 2.45 uM by propidium iodide staining based flow cytometry analysis (reference value: 44.03%); type: functional
Cell membrane [13] = experiment: Induction of mitochondrial membrane potential loss in human K562 cells assessed as increase in apoptotic cells at 2.45 uM by JC-1 staining based flow cytometry analysis (reference value: 5.70); type: cell membranes
K562 [14] = experiment: Induction of cell cycle arrest in human K562 cells assessed as G1 phase cells at 1.23 uM by propidium iodide staining based flow cytometry analysis (reference value: 43.16%); type: functional
K562 [15] = experiment: Induction of cell cycle arrest in human K562 cells assessed as S phase cells at 4.90 uM by propidium iodide staining based flow cytometry analysis (reference value: 44.03%); type: functional; conditions: dose 4.9 µM
Cell membrane [16] = experiment: Induction of mitochondrial membrane potential loss in human K562 cells assessed as increase in apoptotic cells at 1.23 uM by JC-1 staining based flow cytometry analysis (reference value: 5.70); type: cell membranes
K562 [17] = experiment: Induction of apoptosis in human K562 cells assessed as late apoptotic cells at 4.90 uM by Annexin V-FITC and PI staining based flow cytometry analysis (reference value: 3.04%); type: functional; conditions: dose 4.9 µM
K562 [18] = experiment: Induction of apoptosis in human K562 cells assessed as early apoptotic cells at 4.90 uM by Annexin V-FITC and PI staining based flow cytometry analysis (reference value: 3.31%); type: functional; conditions: dose 4.9 µM
K562 [19] = experiment: Induction of cell cycle arrest in human K562 cells assessed as G1 phase cells at 2.45 uM by propidium iodide staining based flow cytometry analysis (reference value: 43.16%); type: functional
Cell membrane [20] = experiment: Induction of mitochondrial membrane potential loss in human K562 cells assessed as increase in apoptotic cells at 4.90 uM by JC-1 staining based flow cytometry analysis (reference value: 5.70); type: cell membranes; conditions: dose 4.9 µM
K562 [21] = experiment: Induction of cell cycle arrest in human K562 cells assessed as G2 phase cells at 2.45 uM by propidium iodide staining based flow cytometry analysis (reference value: 12.80%); type: functional
K562 [22] = experiment: Induction of apoptosis in human K562 cells assessed as early apoptotic cells at 2.45 uM by Annexin V-FITC and PI staining based flow cytometry analysis (reference value: 3.31%); type: functional

| SMILES | IC50 (MCF7) [µM] | IC50 (K562 [1]) [µM] | IC50 (MDA-MB-231) [µM] | IC50 [2] [µM] | IC50 (PANC-1) [µM] | IC50 (HepG2) [µM] | IC50 (A549) [µM] | other results |
| --- | --- | --- | --- | --- | --- | --- | --- | --- |
| COC1=CC2[C@@H]3Cc4c(Cl)cc(OC)c(OCCOC(=O)CCCCC(CCSCc5ccccc5)SCc5ccccc5)c4[C@]2(CCN3C)CC1=O (stereo partly drawn) | > 50 | 16.8 | > 50 | > 50 | > 50 | > 50 | > 50 |  |
| COC1=CC2[C@@H]3Cc4c(Br)cc(OC)c(OCCCCCOC(=O)CCCCC(CCSCc5ccccc5)SCc5ccccc5)c4[C@]2(CCN3C)CC1=O (stereo partly drawn) | > 50 | 22.5 | > 50 | > 50 | > 50 | > 50 | > 50 |  |
| COC1=CC2[C@@H]3Cc4c(Br)cc(OC)c(OCCCCOC(=O)CCCCC(CCSCc5ccccc5)SCc5ccccc5)c4[C@]2(CCN3C)CC1=O (stereo partly drawn) | > 50 | 25.1 | > 50 | > 50 | > 50 | > 50 | > 50 |  |
| COC1=CC2[C@@H]3Cc4ccc(OC)c(OCCOC(=O)CCCCC(CCSCc5ccccc5)SCc5ccccc5)c4[C@]2(CCN3C)CC1=O (stereo partly drawn) | > 50 | 158 | > 50 | > 50 | > 50 | 47.5 | 11.6 |  |
| COC1=CC2[C@@H]3Cc4ccc(OC)c(OCCCCCCOC(=O)CCCCC(CCSCc5ccccc5)SCc5ccccc5)c4[C@]2(CCN3C)CC1=O (stereo partly drawn) | > 50 | 3.02 | > 50 | > 50 | > 50 | 28.2 | 16.2 |  |
| O=C(O)CCCCC(CCSCc1ccccc1)SCc1ccccc1 (stereo not drawn) [CPI 613] | > 50 | > 50 | > 50 |  | > 50 | > 50 | > 50 |  |
| COC1=CC2[C@@H]3Cc4c(Cl)cc(OC)c(OCCCCCCOC(=O)CCCCC(CCSCc5ccccc5)SCc5ccccc5)c4[C@]2(CCN3C)CC1=O (stereo partly drawn) | > 50 | 21.5 | > 50 | > 50 | > 50 | > 50 | > 50 |  |
| COC1=CC2[C@@H]3Cc4ccc(OC)c(OCCCCCOC(=O)CCCCC(CCSCc5ccccc5)SCc5ccccc5)c4[C@]2(CCN3C)CC1=O (stereo partly drawn) | 45.4 | 2.45 | > 50 | > 50 | > 50 | 15.6 | 23.9 | Activity (K562 [3]): 6.48%; Activity (K562 [4]): Dose-Dependent Effect; Activity (K562 [5]): 41.92%; Activity (K562 [6]): Dose-Dependent Effect; Activity (K562 [7]): 10.69%; Activity (K562 [8]): 3.53%; Activity (K562 [9]): 13.66%; Activity (K562 [10]): 60.57%; Activity (K562 [11]): 9.83%; Activity (K562 [12]): 38.69%; Activity (Cell membrane [13]): 41.1%; Activity (K562 [14]): 47.39%; Activity (K562 [15]): 32.95%; Activity (Cell membrane [16]): 26.4%; Activity (K562 [17]): 39.9%; Activity (K562 [18]): 25.04%; Activity (K562 [19]): 54.84%; Activity (Cell membrane [20]): 59.1%; Activity (K562 [21]): 3.47%; Activity (K562 [22]): 24.33% |
| COC1=CC2[C@@H]3Cc4c(Cl)cc(OC)c(O)c4[C@]2(CCN3C)CC1=O (stereo partly drawn) | > 50 | 39.3 | > 50 |  | > 50 | > 50 | > 50 |  |
| COC1=CC2[C@@H]3Cc4c(Br)cc(OC)c(OCCOC(=O)CCCCC(CCSCc5ccccc5)SCc5ccccc5)c4[C@]2(CCN3C)CC1=O (stereo partly drawn) | > 50 | 18.9 | > 50 | > 50 | > 50 | > 50 | > 50 |  |
| O=c1[nH]cc(F)c(=O)[nH]1 [FLUOROURACIL] | > 50 | 5.18 | > 50 |  | 48.2 |  | 34.9 |  |
